Results from PubChem BioAssay AID256 (DTP/NCI, 2004).
Several values for one entry are separate records, joined by “and”; a condition that tells them apart may be missing. Identical values can stand only once. Toxic doses and inconclusive results are not listed.

System: CD2F1 mice, L1210 leukemia ip, survival T/C
Assay: NCI In Vivo Anticancer Drug Screen. Data for tumor model L1210 Leukemia (intraperitoneal) in CD2F1 (CDF1) mice
Details: higher = longer survival
Method in brief: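 Vehicle-treated tumor-bearing mice served as controls (C) for compound-treated mice (T). Reported figure is T divided by C.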

SMILES: CN(Cc1cnc2nc(N)nc(N)c2n1)c1ccc(C(=O)N[C@@H](CCC(=O)O)C(=O)O)cc1
- T/C (endpoint: mean survival time, dose: 0.13 mg/kg/injection, schedule: Q01DX009 (ip), vehicle: saline): 119 % of control
- T/C (endpoint: mean survival time, dose: 0.19 mg/kg/injection, schedule: Q01DX009 (ip), vehicle: alkali diluted with saline): 115 % of control
- T/C (endpoint: mean survival time, dose: 0.25 mg/kg/injection, schedule: Q01DX009 (ip), vehicle: sodium bicarbonate): 115 % of control
- T/C (endpoint: mean survival time, dose: 0.25 mg/kg/injection, schedule: Q03HX008 (ip), vehicle: saline): 122 % of control
- T/C (endpoint: mean survival time, dose: 0.38 mg/kg/injection, schedule: Q01DX009 (ip), vehicle: alkali diluted with saline): 120 % of control
- T/C (endpoint: mean survival time, dose: 0.38 mg/kg/injection, schedule: Q01DX009 (ip), vehicle: other): 154 % of control
- T/C (endpoint: mean survival time, dose: 0.44 mg/kg/injection, schedule: Q01DX009 (ip), vehicle: sodium bicarbonate): 156 % of control
- T/C (endpoint: mean survival time, dose: 0.47 mg/kg/injection, schedule: Q01DX009 (ip), vehicle: sodium bicarbonate): 160 % of control
- T/C (endpoint: mean survival time, dose: 0.5 mg/kg/injection, schedule: Q01DX005 (ip), vehicle: sodium bicarbonate): 115 % of control and 122 % of control
- T/C (endpoint: mean survival time, dose: 0.5 mg/kg/injection, schedule: Q01DX007 (ip), vehicle: other): 117 % of control
- T/C (endpoint: mean survival time, dose: 0.5 mg/kg/injection, schedule: Q01DX009 (ip), vehicle: saline): 159 % of control
- T/C (endpoint: mean survival time, dose: 0.75 mg/kg/injection, schedule: Q01DX009 (ip), vehicle: alkali diluted with saline): 152 % of control and 163 % of control
- T/C (endpoint: mean survival time, dose: 0.75 mg/kg/injection, schedule: Q01DX009 (ip), vehicle: other): 154 % of control
- T/C (endpoint: mean survival time, dose: 0.78 mg/kg/injection, schedule: Q01DX009 (ip), vehicle: sodium bicarbonate): 166 % of control
- T/C (endpoint: mean survival time, dose: 1.0 mg/kg/injection, schedule: Q01DX005 (ip), vehicle: sodium bicarbonate): 113 % of control
- T/C (endpoint: mean survival time, dose: 1.0 mg/kg/injection, schedule: Q01DX009 (ip), vehicle: saline): 171 % of control and 183 % of control
- T/C (endpoint: mean survival time, dose: 1.3 mg/kg/injection, schedule: Q01DX009 (ip), vehicle: sodium bicarbonate): 181 % of control
- T/C (endpoint: mean survival time, dose: 1.5 mg/kg/injection, schedule: Q01DX009 (ip), vehicle: alkali diluted with saline): 177 % of control and 178 % of control
- T/C (endpoint: mean survival time, dose: 1.5 mg/kg/injection, schedule: Q01DX009 (ip), vehicle: other): 150 % of control and 164 % of control
- T/C (endpoint: mean survival time, dose: 2.0 mg/kg/injection, schedule: Q01DX007 (ip), vehicle: other): 164 % of control
- T/C (endpoint: mean survival time, dose: 2.0 mg/kg/injection, schedule: Q01DX009 (ip), vehicle: saline): 161 % of control
- T/C (endpoint: mean survival time, dose: 2.0 mg/kg/injection, schedule: Q02DX005 (ip), vehicle: sodium bicarbonate): 170 % of control
- T/C (endpoint: mean survival time, dose: 2.0 mg/kg/injection, schedule: Q03DX003 (ip), vehicle: sodium bicarbonate): 158 % of control
- T/C (endpoint: mean survival time, dose: 2.0 mg/kg/injection, schedule: Q04DX003 (ip), vehicle: sodium bicarbonate): 160 % of control
- T/C (endpoint: mean survival time, dose: 2.16 mg/kg/injection, schedule: Q01DX009 (ip), vehicle: sodium bicarbonate): 179 % of control
- T/C (endpoint: mean survival time, dose: 2.3 mg/kg/injection, schedule: Q01DX009 (ip), vehicle: sodium bicarbonate): 164 % of control
- T/C (endpoint: mean survival time, dose: 2.3 mg/kg/injection, schedule: Q04DX003 (ip), vehicle: saline): 114 % of control
- T/C (endpoint: mean survival time, dose: 2.5 mg/kg/injection, schedule: Q04DX003 (ip), vehicle: sodium bicarbonate): 116 % of control
- T/C (endpoint: mean survival time, dose: 4.0 mg/kg/injection, schedule: Q01DX005 (ip), vehicle: sodium bicarbonate): 160 % of control
- T/C (endpoint: mean survival time, dose: 4.0 mg/kg/injection, schedule: Q04DX003 (ip), vehicle: saline): 166 % of control
- T/C (endpoint: mean survival time, dose: 4.0 mg/kg/injection, schedule: Q04DX003 (ip), vehicle: sodium bicarbonate): 169 % of control
- T/C (endpoint: mean survival time, dose: 4.6 mg/kg/injection, schedule: Q04DX003 (ip), vehicle: saline): 164 % of control
- T/C (endpoint: mean survival time, dose: 5.0 mg/kg/injection, schedule: Q04DX003 (ip), vehicle: alkali diluted with saline): 156 % of control
- T/C (endpoint: mean survival time, dose: 5.0 mg/kg/injection, schedule: Q04DX003 (ip), vehicle: sodium bicarbonate): 159 % of control
- T/C (endpoint: mean survival time, dose: 5.4 mg/kg/injection, schedule: Q04DX003 (ip), vehicle: sodium bicarbonate): 165 % of control
- T/C (endpoint: mean survival time, dose: 8.0 mg/kg/injection, schedule: Q01DX001 (ip), vehicle: saline): 116 % of control
- T/C (endpoint: mean survival time, dose: 8.0 mg/kg/injection, schedule: Q03DX003 (ip), vehicle: sodium bicarbonate): 181 % of control
- T/C (endpoint: mean survival time, dose: 9.0 mg/kg/injection, schedule: Q04DX003 (ip), vehicle: sodium bicarbonate): 176 % of control
- T/C (endpoint: mean survival time, dose: 9.2 mg/kg/injection, schedule: Q04DX003 (ip), vehicle: saline): 175 % of control
- T/C (endpoint: mean survival time, dose: 10.0 mg/kg/injection, schedule: Q01DX005 (ip), vehicle: sodium bicarbonate): 164 % of control
- T/C (endpoint: mean survival time, dose: 10.0 mg/kg/injection, schedule: Q04DX003 (ip), vehicle: alkali diluted with saline): 154 % of control and 164 % of control
- T/C (endpoint: mean survival time, dose: 10.0 mg/kg/injection, schedule: Q04DX004 (ip), vehicle: sodium bicarbonate): 165 % of control and 183 % of control
- T/C (endpoint: mean survival time, dose: 15.0 mg/kg/injection, schedule: Q04DX004 (ip), vehicle: sodium bicarbonate): 168 % of control and 170 % of control
- T/C (endpoint: mean survival time, dose: 16.0 mg/kg/injection, schedule: Q04DX003 (ip), vehicle: saline): 150 % of control
- T/C (endpoint: mean survival time, dose: 25.0 mg/kg/injection, schedule: Q04DX003 (ip), vehicle: sodium bicarbonate): 174 % of control
- T/C (endpoint: mean survival time, dose: 25.0 mg/kg/injection, schedule: Q04DX004 (ip), vehicle: sodium bicarbonate): 175 % of control
- T/C (endpoint: mean survival time, dose: 32.0 mg/kg/injection, schedule: Q04DX003 (ip), vehicle: saline): 174 % of control
- T/C (endpoint: mean survival time, dose: 35.0 mg/kg/injection, schedule: Q04DX003 (ip), vehicle: sodium bicarbonate): 175 % of control
- T/C (endpoint: mean survival time, dose: 36.8 mg/kg/injection, schedule: Q04DX003 (ip), vehicle: saline): 159 % of control
- T/C (endpoint: mean survival time, dose: 41.7 mg/kg/injection, schedule: Q04DX003 (ip), vehicle: sodium bicarbonate): 116 % of control
- T/C (endpoint: mean survival time, dose: 64.0 mg/kg/injection, schedule: Q04DX003 (ip), vehicle: saline): 120 % of control
- T/C (endpoint: mean survival time, dose: 73.5 mg/kg/injection, schedule: Q04DX003 (ip), vehicle: saline): 124 % of control
- T/C (endpoint: mean survival time, dose: 128.0 mg/kg/injection, schedule: Q04DX003 (ip), vehicle: saline): 120 % of control
- T/C (endpoint: median survival time, dose: 0.5 mg/kg/injection, schedule: Q01DX005 (ip), vehicle: sodium bicarbonate): 113 % of control
- T/C (endpoint: median survival time, dose: 0.52 mg/kg/injection, schedule: Q01DX009 (ip), vehicle: sodium bicarbonate): 152 % of control
- T/C (endpoint: median survival time, dose: 0.6 mg/kg/injection, schedule: Q06HX024 (ip), vehicle: saline): 116 % of control
- T/C (endpoint: median survival time, dose: 0.86 mg/kg/injection, schedule: Q01DX009 (ip), vehicle: sodium bicarbonate): 165 % of control
- T/C (endpoint: median survival time, dose: 1.0 mg/kg/injection, schedule: Q01DX005 (ip), vehicle: sodium bicarbonate): 124 % of control
- T/C (endpoint: median survival time, dose: 1.25 mg/kg/injection, schedule: Q01DX009 (ip), vehicle: sodium bicarbonate): 173 % of control and 178 % of control
- T/C (endpoint: median survival time, dose: 1.56 mg/kg/injection, schedule: Q01DX009 (ip), vehicle: sodium bicarbonate): 171 % of control
- T/C (endpoint: median survival time, dose: 2.5 mg/kg/injection, schedule: Q01DX009 (ip), vehicle: sodium bicarbonate): 182 % of control
- T/C (endpoint: median survival time, dose: 3.0 mg/kg/injection, schedule: Q01DX005 (ip), vehicle: sodium bicarbonate): 160 % of control and 175 % of control
- T/C (endpoint: median survival time, dose: 3.0 mg/kg/injection, schedule: Q01DX009 (ip), vehicle: sodium bicarbonate): 156 % of control
- T/C (endpoint: median survival time, dose: 4.0 mg/kg/injection, schedule: Q01DX005 (ip), vehicle: sodium bicarbonate): 168 % of control and 181 % of control
- T/C (endpoint: median survival time, dose: 4.5 mg/kg/injection, schedule: Q01DX005 (ip), vehicle: sodium bicarbonate): 169 % of control (2×) and 183 % of control
- T/C (endpoint: median survival time, dose: 5.4 mg/kg/injection, schedule: Q04DX003 (ip), vehicle: sodium bicarbonate): 163 % of control and 168 % of control
- T/C (endpoint: median survival time, dose: 6.0 mg/kg/injection, schedule: Q01DX005 (ip), vehicle: sodium bicarbonate): 171 % of control and 179 % of control
- T/C (endpoint: median survival time, dose: 9.0 mg/kg/injection, schedule: Q04DX003 (ip), vehicle: sodium bicarbonate): 175 % of control
- T/C (endpoint: median survival time, dose: 12.5 mg/kg/injection, schedule: Q01DX001 (ip), vehicle: sodium bicarbonate): 116 % of control
- T/C (endpoint: median survival time, dose: 15.0 mg/kg/injection, schedule: Q04DX003 (ip), vehicle: sodium bicarbonate): 175 % of control
- T/C (endpoint: median survival time, dose: 25.0 mg/kg/injection, schedule: Q04DX003 (ip), vehicle: sodium bicarbonate): 173 % of control
- T/C (endpoint: median survival time, dose: 72.0 mg/kg/injection, schedule: Q01DX001 (ip), vehicle: sodium bicarbonate): 113 % of control and 122 % of control
- T/C (endpoint: median survival time, dose: 400.0 mg/kg/injection, schedule: Q01DX001 (ip), vehicle: sodium bicarbonate): 177 % of control

SMILES: O=C(Nc1cccc(O)c1)C1CC1
- T/C (endpoint: mean survival time, dose: 100.0 mg/kg/injection, schedule: Q01DX001 (ip), vehicle: saline with Tween-80): 105 % of control
- T/C (endpoint: mean survival time, dose: 200.0 mg/kg/injection, schedule: Q01DX001 (ip), vehicle: saline with Tween-80): 94 % of control

SMILES: COc1ccc2c(c1)CCN1C2CCN2CCCC21 (configuration not stated)
- T/C (endpoint: mean survival time, dose: 100.0 mg/kg/injection, schedule: Q04DX003 (ip), vehicle: saline with Tween-80): 98 % of control
- T/C (endpoint: mean survival time, dose: 200.0 mg/kg/injection, schedule: Q04DX003 (ip), vehicle: saline with Tween-80): 90 % of control
